Measured values as given in the supplement of paper PMC6045584.
± gives the standard deviation of the averaged measurements.

Assays:
[1] = compound: O=C(NOCC1CC1)c1ccc(F)c(F)c1Nc1ccc(I)cc1Cl; test: surviving fraction relative to DMSO-only wells; higher = less growth inhibition; conditions: exposure time: 5 days
Outline: (§1)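 Continuous five-day exposure to inhibitors at 0.5, 1, 5, 10, 50, 100, 500 and 1000 nM started 24 hours after log-phase tumour cell lines were seeded at 250–500 cells per well in 384-well plates. Luminescence was read after 10 minutes at room temperature. Viability is given as surviving fraction, meaning CellTiter-Glo luminescence normalised to the median of DMSO-only wells.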

[2] = compound: O=C(O)CC[C@H]1CC[C@@](c2cc(F)ccc2F)(S(=O)(=O)c2ccc(Cl)cc2)CC1 [MK0752]; test: as above; conditions: exposure time: 5 days
Outline: as §1

Test System	surviving fraction ([1]; 0.5 nM)	surviving fraction ([1]; 1 nM)	surviving fraction ([1]; 5 nM)	surviving fraction ([1]; 10 nM)	surviving fraction ([1]; 50 nM)	surviving fraction ([1]; 100 nM)	surviving fraction ([1]; 500 nM)	surviving fraction ([1]; 1000 nM)	surviving fraction ([2]; 0.5 nM)	surviving fraction ([2]; 1 nM)	surviving fraction ([2]; 5 nM)	surviving fraction ([2]; 10 nM)	surviving fraction ([2]; 50 nM)	surviving fraction ([2]; 100 nM)	surviving fraction ([2]; 500 nM)	surviving fraction ([2]; 1000 nM)
SYO1 SYNOVIAL	0.469 ± 0.17	0.941 ± 0.093	0.833 ± 0.065	0.888 ± 0.034	0.542 ± 0.11	0.885 ± 0.023	0.784 ± 0.058	0.8681 ± 0.0032	1 ± 0.024	0.981 ± 0.029	0.9374 ± 0.0056	1 ± 0.042	1.04 ± 0.082	1.01 ± 0.02	0.98 ± 0.052	0.971 ± 0.018
T47D BREAST	0.8871 ± 0.0062	0.999 ± 0.027	0.943 ± 0.018	1.008 ± 0.0089	0.899 ± 0.011	1.06 ± 0.04	0.996 ± 0.075	0.977 ± 0.07	1.07 ± 0.025	1.07 ± 0.011	1.04 ± 0.022	1.1 ± 0.015	1.11 ± 0.071	1.14 ± 0.018	1.09 ± 0.044	1.11 ± 0.02
U2OS BONE	1.03 ± 0.016	1.03 ± 0.019	1.02 ± 0.036	1.07 ± 0.042	0.983 ± 0.026	0.996 ± 0.035	0.95 ± 0.03	0.876 ± 0.03	1.05 ± 0.06	1.06 ± 0.015	1.08 ± 0.019	1.08 ± 0.034	1.1 ± 0.075	1.18 ± 0.031	1.02 ± 0.041	1.04 ± 0.058
VCAP PROSTATE	0.925 ± 0.048	0.984 ± 0.082	0.923 ± 0.042	1.01 ± 0.12	0.86 ± 0.079	1.08 ± 0.068	1.05 ± 0.13	0.975 ± 0.0027	1.04 ± 0.051	1.15 ± 0.15	1.11 ± 0.14	1.19 ± 0.13	1.12 ± 0.065	1.22 ± 0.12	1.14 ± 0.076	1.12 ± 0.15
VP229 BREAST	1.11 ± 0.054	1.16 ± 0.099	1.24 ± 0.14	1.08 ± 0.041	1.03 ± 0.13	0.908 ± 0.043	0.782 ± 0.039	0.769 ± 0.074	1.39 ± 0.087	1.15 ± 0.2	1.13 ± 0.092	1.17 ± 0.07	1.1 ± 0.2	1.05 ± 0.14	1.01 ± 0.14	0.901 ± 0.084
YAMATO SYNOVIAL	0.319 ± 0.026	1.07 ± 0.11	0.9 ± 0.084	1.2 ± 0.044	0.483 ± 0.013	1.1 ± 0.14	0.789 ± 0.064	0.928 ± 0.049	1.34 ± 0.1	1.39 ± 0.13	1.51 ± 0.082	1.39 ± 0.058	1.49 ± 0.12	1.46 ± 0.11	1.49 ± 0.063	1.41 ± 0.1
ZR751 BREAST	0.804 ± 0.14	0.868 ± 0.022	0.806 ± 0.049	0.814 ± 0.056	0.697 ± 0.071	0.846 ± 0.03	0.677 ± 0.03	0.682 ± 0.011	1.21 ± 0.034	1.15 ± 0.031	1.13 ± 0.13	1.06 ± 0.089	1.09 ± 0.041	1.17 ± 0.083	1.14 ± 0.15	1.25 ± 0.24
